The record followed here is patent publication US20240199648A1, “MAP4K1 INHIBITORS” (Blueprint Medicines Corporation, priority 2021, published 2024).

pEC50, pIC50: −log10 of the molar value. Like-named read-outs stand apart in the source and are kept apart here.

The subject of one assay is Primary T Cell. Briefly: T cell enhancement of cytokines: IL2 measurement (HTRF) in expanded CD3+ T cells stimulated with anti-CD3/anti-CD28. The class given is cell-based, human. Conditions: plate-bound anti-CD3 and soluble anti-CD28, 24 h, read-out: IL-2 Primary T Cell EC50. On the procedure: T cells are isolated from whole blood of healthy donors by immunomagnetic negative selection following manufacture's protocol (StemCell Technologies, human T cell isolation kit). Purity of isolated cells is assessed by flow cytometry and yields 95-98% CD3^+ T cells. For expansion of T cells, 1×10^6 cells/well are plated in serum free cell expansion media (ThermoFisher) containing 30U of recombinant human IL2 (R&D) and stimulated with 25 ul of CD3/CD28 beads (Invitrogen) in 24 well plates for 3-4 days. T cells are then expanded in 175 cm flasks and maintained at a cell density of 1 to 2.5×10^6 cells/ml days by addition of ⅔ of fresh media every 2-3 days. After 10-14 days, cells are frozen in BamBanker freezing media (Thermo) and stored in liquid nitrogen.
For IL2 measurement, expanded CD3+ T cells are dispensed at 100K cells/well (cultured in X-VIVO 10 Serum-free media) and are stimulated with plate-bound anti-CD3 and soluble anti-CD28 in the presence of vehicle or compound of the disclosure at various concentrations for 24 h. As outlined in the manufacturer's protocol (Cisbio), 16 μL of conditioned media is transferred to a white 384-well low volume plate. Following a 24 h incubation with the anti-IL2 antibodies, the homogenous time resolved fluorescence (HTRF) is measured.

The target of a further assay is T1, MAP4K1 (HPK1) (Homo sapiens, UniProt Q92918).
T1 construct: purchased Invitrogen
T1 sequence (Q92918 whole entry): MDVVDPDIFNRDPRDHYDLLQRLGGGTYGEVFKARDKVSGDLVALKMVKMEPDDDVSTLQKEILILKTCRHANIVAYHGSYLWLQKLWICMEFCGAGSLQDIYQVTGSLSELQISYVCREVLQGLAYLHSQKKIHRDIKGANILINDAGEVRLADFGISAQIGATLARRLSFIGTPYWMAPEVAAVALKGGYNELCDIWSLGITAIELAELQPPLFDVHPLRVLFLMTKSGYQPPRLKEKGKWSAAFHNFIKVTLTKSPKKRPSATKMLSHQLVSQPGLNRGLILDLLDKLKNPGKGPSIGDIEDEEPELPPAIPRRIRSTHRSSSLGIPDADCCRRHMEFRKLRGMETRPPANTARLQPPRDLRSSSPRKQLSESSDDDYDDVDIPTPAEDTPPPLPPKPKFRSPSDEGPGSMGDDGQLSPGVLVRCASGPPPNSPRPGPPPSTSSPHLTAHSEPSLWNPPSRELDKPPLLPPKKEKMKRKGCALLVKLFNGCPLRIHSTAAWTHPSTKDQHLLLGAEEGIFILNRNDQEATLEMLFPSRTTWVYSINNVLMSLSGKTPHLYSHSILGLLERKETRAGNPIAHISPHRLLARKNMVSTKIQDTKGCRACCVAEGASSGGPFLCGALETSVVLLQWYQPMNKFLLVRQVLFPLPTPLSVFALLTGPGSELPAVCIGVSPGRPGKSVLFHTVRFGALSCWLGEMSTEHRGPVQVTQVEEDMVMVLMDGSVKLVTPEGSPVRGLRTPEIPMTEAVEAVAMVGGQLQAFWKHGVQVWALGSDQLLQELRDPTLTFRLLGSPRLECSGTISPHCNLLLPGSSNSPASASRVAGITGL
In words: Inhibition of MAP4K1 biochemical enzymatic activity (EZReader 2 electrophoretic mobility shift assay). Conditions: HPK1 (Invitrogen), S6K2tide 1.5 μM, 120 min; ATP 26 μM or 1000 μM (not stated which). An excerpt:
MAP4K1 (HPK1) and relevant off-target enzymatic activity was monitored using the Perkin Elmer electrophoretic mobility shift technology platform—the EZReader 2. […] Within the linear, steady-state phase of the kinase enzymatic reaction, the mixed pool of phosphorylated (product) and non-phosphorylated (substrate) peptides was passed through the microfluidic system of the PerkinElmer EZ Reader 2, under an applied electric potential difference. The presence of the phosphate group on the product peptide provided a difference in mass and charge between that of the substrate peptide, resulting in a separation of the substrate and product pools in the sample (Perrin et al. 2010). As the product and substrate peptide mixture passes the lasers within the instrument, these pools are detected (λex=488 nm, λem=568 nm) and resolved as separate peaks. The ratio between these peaks reflects the activity of the compound at that concentration, in that well, under those conditions.
Inhibitors were dissolved in 100% DMSO at a stock concentration of 10 mM. A 100×, 10-point, 4-fold serial dilution of each inhibitor was created in 100% DMSO either manually or on a Hamilton STAR liquid handler, starting at a relevant concentration, usually 1 mM. A volume of 0.130 μL of each concentration was transferred to the relevant wells of a 384-well plate (Greiner 781 201) in diplicate using a TTPLabtech Mosquito nano-litre dispenser. Using a Multidrop Combi, the remaining constituents of the kinase reaction were added to the 130 nL of dosed compound as follows (see table below for final reaction details):
Enzyme activity assays at the ^APPKM for ATP or 1 mM ATP: In each well of a 384-well plate, 0.1-15 nM of untreated enzyme was incubated in a total of 13 μL of buffer (100 mM HEPES pH 7.5, 0.015% Brij 35, 10 mM MgCl2, 1 mM DTT) with 1.5 μM fluorescent peptid and 20-1000 μM ATP, at 25° C., for 60-180 minutes in the presence or absence of a dosed concentration series of compound (1% DMSO final concentration). The kinase reactions were stopped by the addition of 70 μl of Stop buffer (100 mM HEPES pH 7.5, 0.015% Brij 35, 35 mM EDTA and 0.2% of Coating Reagent 3 (Caliper Lifesciences)). The plates were read on a Caliper EZReader 2 as described above.
In general terms: Mobility shift assays separate free from complexed probe on a gel.

Take `CC(=O)N1CC(Oc2ccc(C(C)(C)N)c3cc(Nc4ccc5c(n4)[C@@H](C)C(C)(C)OC5=O)ncc23)C1` [Compound 21, (R)-2-((8-((1-Acetylazetidin-3-yl)oxy)-5-(2-aminopropan-2-yl)isoquinolin-3-yl)amino)-7,7,8-trimethyl-7,8-dihydro-5H-pyrano[4,3-b]pyridin-5-one]: the negative logarithm of the EC50 (pEC50) (commonly −log10 of the EC50, conventionally taken in molar units) with Primary T Cell (Homo sapiens, T-cell, 24 h) is 7.77. The pIC50 (as a rule, the IC50 on a negative log10 scale, so that one unit is a factor of ten) at MAP4K1 (HPK1) is 9.85.
On the same counts, the results for `CC(=O)N1CC(Nc2ncc(C(C)(C)N)c3cc(Nc4ccc5c(n4)[C@@H](C)C(C)(C)OC5=O)ncc23)C1` [Compound 22] are 6.32 and 9.27.
Take `C[C@@H]1OC(=O)c2ccc(Nc3cc4c(C(C)(C)N)cnc(OC5CN(C(=O)N(C)C)C5)c4cn3)nc2[C@H]1C` [Compound 34]: the pEC50 in the assay on Primary T Cell (Homo sapiens, T-cell, 24 h) was 7.36. In addition, the pIC50 at MAP4K1 (HPK1) was 9.72.
As to `CC(=O)N1CC(Oc2ncc(C(C)(C)N)c3cc(Nc4ccc5c(n4)[C@@H](C)C(C)(C)OC5=O)ncc23)C1` [Compound 4, (R)-2-((8-((1-Acetylazetidin-3-yl)oxy)-5-(2-aminopropan-2-yl)-2,7-naphthyridin-3-yl)amino)-7,7,8-trimethyl-7,8-dihydro-5H-pyrano[4,3-b]pyridin-5-one], the negative-log EC50 (pEC50) in the assay on Primary T Cell (Homo sapiens, T-cell, 24 h) is 7.70. In addition, on MAP4K1 (HPK1), the pIC50 is 9.82.
Consider `C[C@@H]1c2nc(Nc3cc4c(C(C)(C)N)cnc(OC5CN(C(=O)[C@@H]6C[C@@H]6F)C5)c4cn3)ccc2C(=O)OC1(C)C` [Compound 12], for which the pEC50 with Primary T Cell (Homo sapiens, T-cell, 24 h) was 7.98. In addition, the pIC50 on MAP4K1 (HPK1) is 9.80.
For `COC[C@@](C)(N)c1cnc(OC2CN(C(=O)C3CC3)C2)c2cnc(Nc3ccc4c(n3)[C@@H](C)[C@H](C)OC4=O)cc12` [Compound 80] the same measures were 7.20 and 9.77.
As for `COC[C@@](C)(N)c1cnc(O[C@@H]2CN(C(C)=O)[C@H]2C)c2cnc(Nc3ccc4c(n3)[C@@H](C)[C@H](C)OC4=O)cc12` [Compound 119], in the assay on Primary T Cell (Homo sapiens, T-cell, 24 h), the pEC50 is 7.05. For the same compound, the pIC50 on MAP4K1 (HPK1) was 9.70.
For `C[C@@H]1OC(=O)c2ccc(Nc3cc4c(C(C)(C)N)cnc(OC5CN(C(=O)[C@@H]6CCCO6)C5)c4cn3)nc2[C@H]1C` [Compound 76] the same measures were 7.33 and 9.77.
As to `C[C@@H]1OC(=O)c2ccc(Nc3cc4c(C(C)(C)N)cnc(OC5CN(C(=O)C6CC6)C5)c4cn3)nc2[C@H]1C` [Compound 5], in the assay on Primary T Cell (Homo sapiens, T-cell, 24 h), the pEC50 is 7.75. The pIC50 on MAP4K1 (HPK1) was 9.77.
On the same counts, the results for `COC[C@@](C)(N)c1cnc(OC2CN(C(C)=O)C2)c2cnc(Nc3ccc4c(n3)[C@@H](C)C(C)(C)OC4=O)cc12` [Compound 62] are 6.97 and 9.54.
For `C[C@@H]1OC(=O)c2ccc(Nc3cc4c(C(C)(C)N)cnc(O[C@H]5C[C@@H](C(=O)N(C)C)C5)c4cn3)nc2[C@H]1C` [Compound 33] the same measures were 8.04 and 9.82.
On the same counts, the results for `CC[C@@H](N)c1ccc(OC2CN(C(=O)C3CC3)C2)c2cnc(Nc3ccc4c(n3)[C@@H](C)C(C)(C)OC4=O)cc12` (single isomer, unassigned) [Compound 40, (R)-2-((5-((R)-1-Aminopropyl)-8-((1-(cyclopropanecarbonyl)azetidin-3-yl)oxy)isoquinolin-3-yl)amino)-7,7,8-trimethyl-7,8-dihydro-5H-pyrano[4,3-b]pyridin-5-one or (R)-2-((5-((S)-1-aminopropyl)-8-((1-(cyclopropanecarbonyl)azetidin-3-yl)oxy)isoquinolin-3-yl)amino)-7,7,8-trimethyl-7,8-dihydro-5H-pyrano[4,3-b]pyridin-5-one] are 6.79 and 9.72.
As to `C[C@@H]1c2nc(Nc3cc4c(C(C)(C)N)cnc(OC5CN(C(=O)N6CC(F)(F)C6)C5)c4cn3)ccc2C(=O)OC1(C)C` [Compound 101], the pEC50 in the assay on Primary T Cell (Homo sapiens, T-cell, 24 h) was 7.75. For the same compound, the pIC50 at MAP4K1 (HPK1) was 9.89.
For `COC[C@@](C)(N)c1cnc(OC2CN(C(=O)OC)C2)c2cnc(Nc3ccc4c(n3)[C@@H](C)C(C)(C)OC4=O)cc12` [Compound 125] the same measures were 6.89 and 9.77.
On the same counts, the results for `CCCC(C)(N)c1cnc(OC2CN(C(C)=O)C2)c2cnc(Nc3ccc4c(n3)[C@@H](C)[C@H](C)OC4=O)cc12` (single isomer, unassigned) [Compound 113] are 8.13 and 9.96.
In the case of `CC(=O)N1C[C@@H](Oc2ncc(C(C)(C)N)c3cc(Nc4ccc5c(n4)[C@@H](C)C(C)(C)OC5=O)ncc23)[C@@H]1C` [Compound 7], the negative logarithm of the EC50 (pEC50) in the assay with Primary T Cell (Homo sapiens, T-cell, 24 h) is 7.65. The pIC50 on MAP4K1 (HPK1) is 9.92.
For `COC[C@@](C)(N)c1ccc(OC2CN(C(C)=O)C2)c2cnc(Nc3ccc4c(n3)[C@@H](C)C(C)(C)OC4=O)cc12` [Compound 56] the same measures were 7.62 and 9.77.
In the case of `COC1CN(C(=O)[C@H]2C[C@@H](Oc3ncc(C(C)(C)N)c4cc(Nc5ccc6c(n5)[C@@H](C)C(C)(C)OC6=O)ncc34)C2)C1` [Compound 15, (R)-2-((5-(2-aminopropan-2-yl)-8-((cis)-3-(3-methoxyazetidine-1-carbonyl)cyclobutoxy)-2,7-naphthyridin-3-yl)amino)-7,7,8-trimethyl-7,8-dihydro-5H-pyrano[4,3-b]pyridin-5-one], in the assay on Primary T Cell (Homo sapiens, T-cell, 24 h), the negative logarithm of the EC50 (pEC50) is 7.38. The pIC50 at MAP4K1 (HPK1) was 9.89.
On the same counts, the results for `C[C@@H]1c2nc(Nc3cc4c(C(C)(C)N)cnc(OC5CN(C(=O)C6COC6)C5)c4cn3)ccc2C(=O)OC1(C)C` [Compound 77] are 7.32 and 9.44.
For `COC1CN(C(=O)[C@H]2C[C@@H](Oc3ncc(C(C)(C)N)c4cc(Nc5ccc6c(n5)[C@@H](C)[C@H](C)OC6=O)ncc34)C2)C1` [Compound 92] the same measures were 7.47 and 9.77.
On the same counts, the results for `C[C@@H]1OC(=O)c2ccc(Nc3cc4c(C(C)(C)N)cnc(OC5CN(C(=O)C6(C(F)(F)F)CC6)C5)c4cn3)nc2[C@H]1C` [Compound 102] are 7.62 and 9.92.
Take `C[C@@H]1OC(=O)c2ccc(Nc3cc4c(C(C)(C)N)ccc(OC5CN(C(=O)C6CC6)C5)c4cn3)nc2[C@H]1C` [Compound 29]: the negative logarithm of the EC50 (pEC50) in the assay on Primary T Cell (Homo sapiens, T-cell, 24 h) is 7.96. Moreover, the negative-log IC50 (pIC50) at MAP4K1 (HPK1) was 9.92.
Consider `CC[C@@H](N)c1cnc(OC2CN(C(=O)C3CC3)C2)c2cnc(Nc3ccc4c(n3)[C@@H](C)C(C)(C)OC4=O)cc12` (stereo in doubt) [Compound 53], for which, in the assay on Primary T Cell (Homo sapiens, T-cell, 24 h), the negative-log EC50 (pEC50) is 7.24. The negative logarithm of the IC50 (pIC50) on MAP4K1 (HPK1) was 9.27.
For `CC(=O)N1C[C@@H](Oc2ncc(C(C)(C)N)c3cc(Nc4ccc5c(n4)[C@@H](C)[C@H](C)OC5=O)ncc23)[C@@H]1C` [Compound 3] the same measures were 7.47 and 9.48.
For `C[C@@H]1c2nc(Nc3cc4c(C(C)(C)N)cnc(OC5CN(C(=O)N6CCC6)C5)c4cn3)ccc2C(=O)OC1(C)C` [Compound 72] the same measures were 7.52 and 9.68.
`COCC(C)(N)c1cnc(OC2CN(C(=O)C3CC3F)C2)c2cnc(Nc3ccc4c(n3)C(C)C(C)OC4=O)cc12` (single isomer, unassigned) [Compound 97]: the negative-log EC50 (pEC50) in the assay with Primary T Cell is 7.30. In addition, the negative logarithm of the IC50 (pIC50) at MAP4K1 (HPK1) is 9.44.
